Results: patent publication US10697960B2, “CXCR4 and ROBO1 expression as markers for autoimmune diabetes” (BOARD OF SUPERVISORS OR LOUISANA STATE UNIVERSITY AND …, priority 2012, dated 2020)
Entries after “also recorded” stand apart in the source; their conditions may differ.

Columns and labels:
[1] = tested on: NOD/ShiLtJ T cells on MS1 endothelial cells; experiment: Anti-ROBO1 T cell detachment assay on MS1 endothelial monolayers under step-wise shear stress; type: cell-based, mouse; details: TNFα stimulation of MS1 cells versus unstimulated control
Procedure: T cell detachment assays were performed as otherwise described in C. Sharp et al. (2008). T cells were injected into the tubing via an inlet port upstream of the flow chamber at a concentration of 2×10^6 cells/ml and allowed to firmly adhere under static conditions for 15 minutes. Next, shear stress was initiated and increased in a step-wise manner every 30 seconds as follows: 35, 56, 91, 224, 504, and 980 mPa. The assay was recorded by video, which was analyzed to determine the percentage of cells detached at the end of each shear stress interval. For the anti-ROBO1 detachment assay, MS1 cells were treated for […] at 37° C. with TNFα as described above and then with 100 ng/ml recombinant mouse SDF-1α (460-SD; R&D Systems). T cells were pre-treated for 30 minutes at 37° C. with 20 μg/ml ROBO1 blocking antibody (GT15144; Neuromics, Edina, Minn., USA) or isotype control (GT15900; Neuromics).
Having established that T cell levels of ROBO1 differ between C57BL/6J and NOD/ShiLtJ mice, we investigated whether SDF-1-mediated firm adhesion defects were dependent on ROBO1-SLIT2 binding. We used a parallel plate flow chamber detachment assay. NOD/ShiLtJ T cells were first allowed to statically adhere to islet endothelial cell monolayers. […]

[2] = tested on: NOD/ShiLtJ T cells on TNFα-activated MS1 islet endothelial cells; experiment: Parallel plate flow chamber T cell adhesion assay with SDF-1 peptide mimetic; type: cell-based, mouse; details: MS1 cells treated 4 hours with 10 ng/ml TNFα; 150 mPa
Procedure: Hydrodynamic flow chamber assays were performed as otherwise described in C. Sharp et al. (2008). Briefly, T cells isolated as described above were labeled with CellTracker Green (C7025; Life Technologies, Carlsbad, Calif., USA), rinsed, and resuspended at a concentration of 2×10^6 cells/ml in phenol red-free Hanks' balanced salt solution (HBSS). The cells were placed in a beaker that had been previously coated with Sigmacote (Sigma-Aldrich), kept at 37° C., and stirred at 60 rev/min. A flow chamber insert and gasket with a 0.5 cm flow width and 250 μm thickness (GlycoTech, Gaithersburg, Md., USA) were used with 35 mm cell culture dishes containing confluent MS1 cell cultures to form a parallel plate flow chamber. To activate endothelial cells, MS1 cells were treated for 4 to 6 hours at 37° C. with 10 ng/ml recombinant mouse TNFα (T7539; Sigma).
For the SDF-1 peptide mimetic T cell adhesion assay, MS1 cells were rinsed with HBSS and treated for 10 minutes with an SDF-1 peptide mimetic (AYWKENKEQ with two branched lysines as a linker between the two motifs, SEQ ID NO 1) at […]. This peptide was a linearized version of a cyclized SDF-1 analogue reported by Tudan et al., “C-terminal cyclization of an SDF-1 small peptide analogue dramatically increases receptor affinity and activation of CXCR4 receptor,” J. Med. Chem., vol. 45, pp. 2024-31 (2002). T cells were pumped through polypropylene tubing by a syringe pump (KD Scientific, Holliston, Mass., USA) across the endothelial monolayer at a physiological shear stress of 150 mPa. Real-time digital video images (minimum 28 frames/second) were captured with an epifluorescence microscope (TE-2000 Eclipse; Nikon, Tokyo, Japan) and digital camera (Model C4742-95-12ER: Hamamatsu Photonics, Hamamatsu, Japan). Simple PCI software (Hamamatsu Photonics) was used to analyze the video and to measure T cell rolling velocities. Cells were considered firmly adherent if they remained stationary for 10 seconds within the field of view. A minimum of three videos per plate and four plates per condition were used for analysis.
We examined whether a linear SDF-1 peptide mimetic containing the receptor-binding site could replicate the effect of full length SDF-1 in blocking adhesion of T cells to activated endothelium. MS1 cells were treated for 4 hours with 10 ng/ml TNFα, followed by treatment for 10 minutes with an SDF-1 peptide mimetic at 200, 1000, or 5000 ng/ml. Cells were then tested in a parallel plate flow chamber cell adhesion assay. Fluorescently labeled T cells obtained from NOD/ShiLtJ mice flowed over the endothelial monolayers at 150 mPa. […] Leucocyte adhesion videos were analyzed to calculate T cell rolling velocity and to determine whether the decrease in firm adhesion was due to a decreased number of rolling cells.

With TNFα the “T cell attachment / resistance to shear-mediated detachment” value [1] was “increased attachment; also recorded: increased the resistance of T cells to shear-mediated detachment” and the “TNFα-induced adhesion versus untreated endothelium” value [2] was “five times greater”.
